Test results published in PubChem BioAssay (NCI).
“And” between values parts separate entries of the source, which are not always exact repeats. Equal values may be shown once.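 Where inhibition never reached the appropriate level, the endpoint shown equals the highest concentration tested. Otherwise, values were interpolated linearly from a five-concentration, 48-hour dose response in 96-well plates. GI50: concentration for 50% inhibition of growth. TGI marks complete inhibition of growth.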

Tests used:
Assay in all cases: NCI-60 cell line screen, 48 h
SN12C renal = tested on: SN12C renal
LXFL 529 NSCLC = tested on: LXFL 529 NSCLC
OVCAR-3 ovarian = tested on: OVCAR-3 ovarian
HOP-62 NSCLC = tested on: HOP-62 NSCLC
SF-295 CNS = tested on: SF-295 CNS
OVCAR-4 ovarian = tested on: OVCAR-4 ovarian
SK-OV-3 ovarian = tested on: SK-OV-3 ovarian
OVCAR-8 ovarian = tested on: OVCAR-8 ovarian
SR leukemia = tested on: SR leukemia
M19-MEL melanoma = tested on: M19-MEL melanoma

Structure (SMILES)	TGI (SN12C renal)	TGI (LXFL 529 NSCLC) [µM]	TGI (OVCAR-3 ovarian)	TGI (HOP-62 NSCLC) [µM]	TGI (SF-295 CNS) [µM]	TGI (OVCAR-4 ovarian) [µM]	TGI (SK-OV-3 ovarian) [µM]	TGI (OVCAR-8 ovarian)	GI50 (SN12C renal) [µM]	GI50 (OVCAR-3 ovarian) [µM]	GI50 (HOP-62 NSCLC) [µM]	GI50 (SF-295 CNS) [µM]	GI50 (OVCAR-4 ovarian) [µM]	GI50 (SR leukemia) [µM]	TGI (SR leukemia)	GI50 (SK-OV-3 ovarian) [µM]	GI50 (OVCAR-8 ovarian) [µM]	TGI (M19-MEL melanoma) [µM]
CC1(C)Cc2nnsc2C2=C1C(=O)CCS2	> 100 µM	> 100	> 100 µM	> 100	> 100	> 100	> 100	> 100 µM										
N#CSCC1CC(O)(c2ccccc2)CC(c2ccc(Cl)cc2)O1 (centres undefined)	3.77 µM		3.14 µM	14.9	12.7	15.3	27.5	3.94 µM	1.81	1.72	4.46	3.28	4.44	1.65	5.02 µM	14.3	1.98	
Cc1cccc(C)c1NC(=O)CCCC(=O)C(C#N)c1ccc(Cl)cc1 (centres undefined)	> 100 µM	> 100	> 100 µM	> 100	> 100	> 100	> 100	> 100 µM							> 100 µM			> 100
NC1=NCC(c2ccccn2)C1c1ccc(F)cc1 (centres undefined)	> 100 µM	> 100	> 100 µM	> 100	> 100	> 100	> 100	> 100 µM							> 100 µM			> 100
O=[N+]([O-])c1ccc2nc3ccscc-3c2c1		27.3	> 100 µM	69.4	> 100	31.4	86.3											61.8
COc1ccc(C2N3CCCCC3[C@@H]3c4[nH]c5ccccc5c4CCN23)c(OC)c1 (some centres undefined)	33.8 µM	49.9	85.3 µM	> 100	> 100	56.5	92.3	> 100 µM										37.4
COc1cc2oc(-c3cccc(C(=O)Nc4ccc(C)cc4)c3)cc(=O)c2c(OC)c1OC	> 100 µM		> 100 µM	28.3	3.56	> 100	68.4	> 100 µM	1.91	5.39	3.68	1.63	2	2.53	40.6 µM	3.13	2.9	
Cc1cccc2cc3cccc(C(=O)NCCN(C)C)c3nc12	1.02 µM	10.6	5.38 µM	0.502	1.74	2.32	0.619	5.58 µM							0.118 µM			0.847
Cc1ccc(S(=O)(=O)NNC(C[N+](=O)[O-])c2ccccc2)cc1 (centres undefined)	> 100 µM		79.4 µM	74.5	49.2	32.1	46.3	46.1 µM							5.56 µM			
CC1=C/C(O)CC(=O)Cc2nc(co2)C(=O)N2CCC=C2C(=O)OC(C(C)C)C(C)/C=C\C(=O)NC/C=C\1 (centres undefined)	> 100 µM and 29.2 µM		37.6 µM and 93.6 µM	> 100	> 100	> 100	> 100	> 100 µM and 35 µM	25.9	13.6	19.1	22.3	16.1	> 100	> 100 µM and 44.6 µM		24.8	
